Our source for the EC50 values is BindingDB's records for doi:10.1021/jm970377o (Abbott Laboratories, 1998).

The assay is described as follows: Compound was evaluated for functional potency and efficacy at human muscle type Nicotinic acetylcholine receptor in TE671 cells.

On to `CC(=O)C1=CC[N+](C)(C)CC1` [4-Acetyl-1,1-dimethyl-1,2,3,6-tetrahydro-pyridinium; iodide], for which the EC50 (as a rule, the concentration that produces a half-maximal response) stood at 100 nM.
